# Assay results: US20130116282A1, “BUCKWHEAT EXTRACT ENRICHED IN D-FAGOMINE” (BIOGLANE, S.L.N.E., priority 2010, published 2013)
# Columns and labels:
# [1] = tested on: Sprague-Dawley rats; assay: Post-prandial blood glucose test after sucrose administration; type: in vivo, rat; conditions: sucrose 2 g/kg, 1.0 mg/kg D-fagomine
# Experimental: The effect on postprandial blood glucose of both D-fagomine enriched extract from buckwheat and D-fagomine obtained chemoenzimatically following the procedure described in WO2008025826A1 was evaluated. Adult male Sprague-Dawley rats of 200-220 g body weight (Janvier, Le Genest-St-Isle, France) were housed in cages (n=2/cage) under controlled conditions of stable humidity (40-77%), and temperature (23° C.) with a 12-hour light/dark cycle. The rats were fed a standard diet (Panlab A04, Panlab, Barcelona, Spain) and given water ad libitum. To minimize circadian rhythm effects, rat manipulations were carried out in the morning. Handling and sacrificing of the animals were in full accordance with the European Union guidelines for the care and management of laboratory animals and the pertinent permission was obtained from the CSIC Subcommittee of Bioethical Issues. The authors further attest that all efforts were made to minimize the number of animals used and their suffering. The glucose test was performed after a 12 h food deprivation period. A solution of sucrose (2 g/kg body weight) together with the appropriate amount of the compound being tested was administered to the rats. […] Blood glucose concentration was measured by the enzyme electrode method using Elite blood glucose test strips and a blood glucose meter Ascensia ELITE XL both from Bayer Consumer Care AG (Basel, Switzerland). […]
# [2] = tested on: Escherichia coli; assay: Adhesion of Escherichia coli to mucus (pig intestinal mucosa); type: cell-based; conditions: 10 mg/L D-fagomine
# Experimental: Adhesion to Mucus. Protocol
# The strains of Escherichia coli used were obtained from the Bacterial Strain Collection of the Faculty of Veterinary Science at the Universitat Autònoma de Barcelona. Overnight, cultures of the bacterial strain were inoculated into flasks containing Luria medium (Liofilchem, Roseto degli Abruzzi, Italy) (3 mL) to facilitate the production of fimbriae. The strains were incubated at 37° C. for 24 h. Then, colonies were grown on Luria medium Agar plates and after 24 h of incubation, several dilutions were prepared in PBS (phosphate buffered saline, Sigma Aldrich, St Louis, Mo., USA) for each strain, down to a concentration of 1×10^7 CFU mL^−1.
# The mucosa was obtained from intestinal segments of pigs, just after they were killed at a local slaughterhouse, and kept frozen until use. The mucosa preparation (1 mL) was defrosted, centrifuged and mixed with PBS (99 mL). Prior to each test, the concentration of mucine in the suspension was calculated by the Bradford method. Multiwell plates (Nunc®, Roskilde, Denmark) were treated with the mucosa suspension (2.5 mL) overnight at 4° C. […] Finally, the colony forming units from both the supernatant and mucosa were counted under an optical microscope after cultivating both fractions overnight.
# [3] = tested on: alpha-glycosidase; conditions: Kato et al. 1997; cited from earlier work
# [4] = tested on: lactase; conditions: Kato et al. 1997; cited from earlier work
# [5] = tested on: Streptozotocin-diabetic mice; conditions: Nojima et al. 1998; cited from earlier work
smiles,measurement,setting,value
"OC[C@H]1NCC[C@@H](O)[C@@H]1O [D-fagomine WO2008025826A1, (2R,3R,4R)-2-(hydroxymethyl)piperidine-3,4-diol]",Increase in plasma glucose after sucrose administration,[1],lowered
same,Agglutination of the microorganisms,[2],agglutinated
same,Bacterial adhesion to the mucus,[2],not detected
same,alpha-glycosidase inhibition,[3],weak inhibitor
same,lactase inhibition,[4],weak inhibitor
same,antihyperglycemic effect,[5],antihyperglycemic effect
